From patent US9593149B2, “Amylin and calcitonin receptor agonist” (Novo Nordisk A/S, priority 2014, dated 2017)
Converted amounts (≈) assume the structure as drawn. Numbered stars: 1 amine (or outer) side, 2 acyl side, 3 side chain; on linkers, the order of the positions; unused ones are H or OH. Peptide text beside a SMILES is read from it. * marks the point of attachment. C20 diacid = O=C(O)CCCCCCCCCCCCCCCCCCC(=O)*; C18 diacid = O=C(O)CCCCCCCCCCCCCCCCC(=O)*; γGlu = O=C(O)[C@H](CCC(=O)[*:2])N[*:1]

Experiment: Assay (IV) determination of solubility
Format: physicochemical
Experimental: Assay (IV)—Determination of Solubility
The mimylin peptide was dissolved in water at ˜500 nmol/ml and mixed 1:1 with a series of buffers (100 mM glycylglycine pH 3.0, 100 mM glycylglycine pH 4.0, 100 mM glycylglycine pH 5.0, 100 mM bistrispropane pH 6.0, 100 mM bistrispropane pH 6.5, 100 mM bistrispropane pH 7.0, 100 mM bistrispropane pH 7.5, 100 mM bistrispropane pH 8.0).

Structure (SMILES) | Solubility (pH 3.0) | Solubility (pH 4.0) | Solubility (pH 5.0) | Solubility (pH 6.0) | Solubility (pH 6.5) | Solubility (pH 7.0) | Solubility (pH 7.5) | Solubility (pH 8.0) | solubility at 18 h (pH 5.0) [µM]
CC(C)C[C@H](NC(=O)[C@H](C)NC(=O)[C@H](C)NC(=O)[C@@H](NC(=O)[C@H](Cc1cnc[nH]1)NC(=O)[C@H](CC(C)C)NC(=O)[C@H](CCC(=O)O)NC(=O)[C@H](CO)NC(=O)[C@H](C)NC(=O)[C@H](CCC(=O)O)NC(=O)CCCCCCCCCCCCCCCCC(=O)O)[C@@H](C)O)C(=O)NCC(=O)N[C@@H](CCCNC(=N)N)C(=O)N[C@@H](CC(C)C)C(=O)N[C@@H](CO)C(=O)N[C@@H](C)C(=O)N[C@@H](CCC(=O)O)C(=O)N[C@@H](CC(C)C)C(=O)N[C@@H](Cc1cnc[nH]1)C(=O)N[C@@H](CCC(=O)O)C(=O)N[C@@H](CC(C)C)C(=O)N[C@@H](C)C(=O)N[C@H](C(=O)N[C@@H](CC(C)C)C(=O)N1CCC[C@H]1C(=O)N[C@@H](CCCNC(=N)N)C(=O)N[C@H](C(=O)N[C@@H](CCC(=O)O)C(=O)N[C@H](C(=O)NCC(=O)N1CCC[C@H]1C(=O)N[C@@H](CCC(=O)O)C(=O)N[C@@H](CO)C(=O)N1CCC[C@H]1C(N)=O)[C@@H](C)O)[C@@H](C)O)[C@@H](C)O [compound 16, [N-terminal(C18 diacid), 6H]mimylin] ({C18 diacid}-EASELHTAALGRLSAELHELATLPRTETGPESP-NH2) | ≧200 μM | ≧200 μM | ≧200 μM | ≧200 μM | ≧200 μM | ≧200 μM | ≧200 μM | ≧200 μM | 
CC(C)C[C@H](NC(=O)CNC(=O)[C@H](CO)NC(=O)[C@H](C)NC(=O)[C@H](CCC(=O)O)NC(=O)CC[C@H](NC(=O)CCCCCCCCCCCCCCCCCCC(=O)O)C(=O)O)C(=O)N[C@@H](CO)C(=O)N[C@H](C(=O)N[C@@H](C)C(=O)N[C@@H](C)C(=O)N[C@@H](CC(C)C)C(=O)NCC(=O)N[C@@H](CCCNC(=N)N)C(=O)N[C@@H](CC(C)C)C(=O)N[C@@H](CO)C(=O)N[C@@H](CCC(N)=O)C(=O)N[C@@H](CCC(=O)O)C(=O)N[C@@H](CC(C)C)C(=O)N[C@@H](Cc1cnc[nH]1)C(=O)N[C@@H](CCC(=O)O)C(=O)N[C@@H](CC(C)C)C(=O)N[C@@H](CCC(N)=O)C(=O)N[C@H](C(=O)N[C@@H](Cc1ccc(O)cc1)C(=O)N1CCC[C@H]1C(=O)N[C@@H](CCCNC(=N)N)C(=O)N[C@H](C(=O)N[C@@H](CCC(=O)O)C(=O)N[C@H](C(=O)NCC(=O)N[C@@H](CO)C(=O)NCC(=O)N[C@H](C(=O)N[C@@H](Cc1ccc(O)cc1)C(N)=O)[C@@H](C)O)[C@@H](C)O)[C@@H](C)O)[C@@H](C)O)[C@@H](C)O [compound 103, [N-terminal(C20 diacid-gGlu), 4G, 15Q, 21Q, 23Y, 30S, 31G, 32T, 33Y]mimylin] ({C20 diacid-γGlu}-EASGLSTAALGRLSQELHELQTYPRTETGSGTY-NH2) | ≧200 μM | ≧200 μM |  | ≧200 μM | ≧200 μM | ≧200 μM | ≧200 μM | ≧200 μM | 156 (≈ 620 µg/mL)
